What all share (format): in vivo, Wistar rats
A short description of data set [1]: Plasma concentrations and pharmacokinetics after intravenous bolus of C3G (NCA and two-compartment model). To be noted: male, Wistar, rat, plasma, iv; for concentration at 2 min: 2 min after i.v. 668 nmol C3G; for concentration at 2 min / concentration at 0.25 min / concentration at 5 min / concentration at 15 min / concentration at 20 min: mean ± SEM n=4; for AUC0-t / half-life: i.v. 668 nmol C3G; for AUC0-t: read-out: AUC0–20 (converted); for half-life: 668 nmol, read-out: Half life; for concentration at 0.25 min: 0.25 min after i.v. 668 nmol C3G; for concentration at 5 min: 5 min after i.v. 668 nmol C3G; for concentration at 15 min: 15 min after i.v. 668 nmol C3G; for concentration at 20 min: 20 min after i.v. 668 nmol C3G. The text has this: (§1) Twenty-two male Wistar rats (Rattus Norvegicus, Harlan Italy S.r.l.), of same age (15 weeks), 293–390 g of body weight, were used. The rats were randomly divided into 5 groups, according to the time that elapsed after intravenous administration of the test compound, and one control group. Each time point was represented by four biological replicates. All animals were allowed to acclimate to the animal facility of the University of Trieste for at least 2 week before studies were initiated. The experimental design was vetted and approved by the bioethical committee of the University of Trieste (internal code 140PAS14), according to the provisions of the European Community Council Directive 2010/63/EU[39]. The methods were carried out in accordance with the approved guidelines. The animals (n = 22) were maintained in cages in a room at 23 ± 2 °C, 50–60% humidity with a 12-hour light-dark cycle. The night before the experiment, food was withdrawn from the cages but water was given ad libitum. On the day of the experiment, the rats were anesthetized with intra-peritoneal administration of tiletamine/zolazepam (1:1, 25 mg/kg body weight) and xylazine (10 mg/kg body weight). During anaesthesia (10 min in all cases), the heart and ventilation rate were monitored. The rats were placed on their backs, with the ventral side up and with the legs spread separately on a thermo-isolated support. The penis was extruded by sliding the prepuce downwards. The dorsal penis vein was then seen along both sides of the penis and exactly 10 min after anaesthesia 0.2 mL PBS without (control group) or with (treated group) 668 nmol cyanidin 3-glucoside (C3G) in PBS was injected using a 24-G hypodermic needle. Then the injection site was pressed with a swab for a few seconds, and the glans was encouraged to retract to prevent further bleeding. One min before sacrificing the rats, sodium heparin (0.1 ml, 500 IU) was injected again into the dorsal penis vein, exposed in the same way. […] Blood draining and excision of the organs were carried out according to the literature. In detail, blood was collected from the neck of rats hold upside down, immediately after their decapitation, which happened at the time points sharp. Exsanguination took 5 seconds; laparotomy and excision of the liver and the kidneys took 5 more seconds. The post-decapitation procedures were standardised. Urine was collected through the urinary bladder with a syringe before decapitation. Kidneys, liver and brain were washed with mQ water, immediately frozen in liquid nitrogen and stored at −80 °C.
(§2) Immediately after sampling, 5 mL of blood were transferred into ice-cold (−20 °C), deoxygenated aqueous 95% methanol in a ratio 1:9 (v/v). The urine was weighted and transferred into ice-cold, deoxygenated aqueous 95% methanol at a ratio of 1:9 (w/v). Frozen kidneys, liver and brain were grounded under cryogenic conditions (−196 °C) to 5 μm particles in a CryoMill (Retsch, Germany), using a single 25 mm i. d. steel ball (30 seconds, 25/sec frequency). The pulverized tissue was rapidly transferred (without thawing) into ice-cold, deoxygenated aqueous 95% methanol at a ratio of 1:9 (w/v). Cinnamic acid-d5, as internal standard, was dissolved in the aqueous methanol at concentration of 0.1 mg/L for the monitoring of the extraction protocol in biofluids and tissues.
(§3) All samples were extracted with an orbital shaker for 10 min at room temperature. The methanol extracts were then centrifuged for 5 min at 3600 rpm at 4 °C, decanted under a stream of nitrogen in 50 mL dark glass vessels and stored at −80 °C. Clean-up of extracted samples in methanol was performed by solid phase extraction (SPE), as previously described. Briefly, 5 mL of extracted samples were evaporated on a rotary evaporator and reconstituted in 10 mL of acidified water. Anthocyanins were extracted by solid-phase adsorption onto a hydrophobic matrix (Sep-Pak C18, 0.35 g, Waters, Milford, MA). […]

The nature of data set [2]: Urinary excretion after intravenous C3G.
From the text: as §1, §2, §3

The nature of data set [3]: Kidney concentrations and tissue pharmacokinetics after intravenous C3G.
From the text: as §1, §2, §3

Data set [4] is described as follows: Brain concentrations and tissue pharmacokinetics after intravenous C3G.
From the text: as §1, §2, §3

The nature of data set [5]: Liver concentrations and tissue pharmacokinetics after intravenous C3G. To be noted: for AUC0-t: i.v. 668 nmol C3G.
From the text: as §1, §2, §3

Setting [6] is: 0.25 min after i.v. 668 nmol C3G.
The mark [7] stands for this setting: 0.25 min after i.v. 668 nmol C3G, mean ± SEM n=4.
The mark [8] stands for this setting: 0.25–20 min after i.v. 668 nmol C3G.

Molecules are shown by their SMILES.

`OC[C@H]1O[C@@H](Oc2cc3c(O)cc(O)cc3[o+]c2-c2cc(O)c(O)c(O)c2)[C@H](O)[C@@H](O)[C@@H]1O` [D3G, Delphinidin-3-O-β-glucoside] displayed a concentration at 2 min in data set [1] of 12.8 ± 10.5 nM. The Urine concentration in data set [2] (setting [6]) was found to be 0.02 ± 0.01 nmol/g; in data set [2] (2 min after i.v. 668 nmol C3G), 0.03 ± 0.00 nmol/g; in data set [2] (5 min after i.v. 668 nmol C3G) it was 0.05 ± 0.01 nmol/g; in data set [2] (15 min after i.v. 668 nmol C3G), 0.02 ± 0.01 nmol/g; in data set [2] (20 min after i.v. 668 nmol C3G), 0.03 ± 0.01 nmol/g.
The half-life is the time in which the quantity being followed falls by half. Turning to `COc1cc(-c2[o+]c3cc(O)cc(O)c3cc2O[C@@H]2O[C@H](CO)[C@@H](O)[C@H](O)[C@H]2O)cc(OC)c1O` [M3G, Malvidin-3-O-β-glucoside], in data set [1], the AUC0-t is 5.72 nM·h, the half-life is 5.29 min, the concentration at 0.25 min was 9.13 ± 3.46 nM and the concentration at 2 min was 95.8 ± 61.7 nM. In data set [1], this compound came in with a concentration at 5 min of 16.4 ± 13.1 nM, a concentration at 15 min of 3.67 ± 0.14 nM and a concentration at 20 min of 8.6 ± 3.88 nM. The same compound showed a Urine concentration in data set [2] (setting [6]) of 0.02835 ± 0.01787 nmol/g. For the same compound, the Urine concentration in data set [2] (2 min after i.v. 668 nmol C3G) came out at 0.00957 ± 0.00452 nmol/g. The compound further gave a Urine concentration in data set [2] (5 min after i.v. 668 nmol C3G) of 0.00515 ± 0.00188 nmol/g. This compound yielded a Urine concentration in data set [2] (15 min after i.v. 668 nmol C3G) of 0.00317 ± 0.00164 nmol/g.
`OC[C@H]1O[C@@H](Oc2cc3c(O)cc(O)cc3[o+]c2-c2ccc(O)cc2)[C@H](O)[C@@H](O)[C@@H]1O` [PG3G, Pelargonidin-3-O-β-glucoside]: in data set [1], the AUC0-t is 0.673 nM·h, the half-life was 44.7 min, the concentration at 0.25 min amounted to 4.5 ± 0.62 nM and the concentration at 2 min amounted to 1.89 ± 0.17 nM. In data set [1], this compound came in with a concentration at 5 min of 2.01 ± 0.28 nM, a concentration at 15 min of 1.9 ± 0.19 nM and a concentration at 20 min of 1.55 ± 0.13 nM. In data set [2] (setting [6]), the Urine concentration was 0.00157 ± 0.0004 nmol/g. This compound also registered a Urine concentration in data set [2] (2 min after i.v. 668 nmol C3G) of 0.00792 ± 0.00259 nmol/g. For the same compound, the Urine concentration in data set [2] (5 min after i.v. 668 nmol C3G) amounted to 0.04709 ± 0.00416 nmol/g. Also, in data set [2] (15 min after i.v. 668 nmol C3G), the Urine concentration was 0.03322 ± 0.01609 nmol/g. In data set [2] (20 min after i.v. 668 nmol C3G), this compound showed a Urine concentration of 0.02098 ± 0.00561 nmol/g.
For `COc1cc(-c2[o+]c3cc(O)cc(O)c3cc2O[C@@H]2O[C@H](CO)[C@@H](O)[C@H](O)[C@H]2O)ccc1O` [PN3G, Peonidin-3-O-β-glucoside], the “Mean concentration in kidneys” value in data set [3] (setting [7]) is reported as 1.99 ± 0.55 nmol/g; in data set [3] (2 min after i.v. 668 nmol C3G), 1.56 ± 0.18 nmol/g; in data set [3] (5 min after i.v. 668 nmol C3G) it was 0.85 ± 0.08 nmol/g; in data set [3] (15 min after i.v. 668 nmol C3G), 0.89 ± 0.22 nmol/g; in data set [3] (20 min after i.v. 668 nmol C3G), 0.90 ± 0.14 nmol/g. Besides, the “MTTK (Mean Transit time in kidneys)” value in data set [3] (kidneys) is given as 23.11 min. The AUC0-t in data set [3] (kidneys, i.v. 668 nmol C3G) is 20.36 nmol·min/g; in data set [4] (brain, i.v. 668 nmol C3G), 17.10 pmol·min/g; in data set [1] it was 2.91 nM·h; in data set [5] (liver), 5610.12 pmol·min/g. Besides, the Kp came to 116 in data set [3] (male, Wistar, rat, kidney, intravenous, 668 nmol, kidneys vs plasma, read-out: AUC in kidneys relative to plasma); 0.0978 in data set [4] (male, Wistar, rat, intravenous, 668 nmol, brain vs plasma, read-out: AUC in brain as share of that in plasma); 32.1 in data set [5] (male, Wistar, rat, intravenous, 668 nmol, liver vs plasma, read-out: AUC in liver relative to plasma). The half-life worked out at 20.8 min in data set [3] (male, Wistar, rat, kidney, iv, 668 nmol, kidneys); 15.6 min in data set [4] (male, Wistar, rat, brain, iv, 668 nmol); 8.16 min in data set [1]; 9.99 min in data set [5] (male, Wistar, rat, liver, iv, 668 nmol, read-out: Half-life). For the same compound, the “Amounts found in brain (range over sampling times)” value in data set [4] (setting [8]) lay in the range of 0.37 to 2.07 pmol/g. In addition, the “Mean concentration in brain” value came to 2.07 ± 1.18 pmol/g in data set [4] (2 min after i.v. 668 nmol C3G), 0.70 ± 0.30 pmol/g in data set [4] (5 min after i.v. 668 nmol C3G), 0.40 ± 0.38 pmol/g in data set [4] (15 min after i.v. 668 nmol C3G) and 0.37 ± 0.13 pmol/g in data set [4] (20 min after i.v. 668 nmol C3G). Besides, the “MTTB (Mean Transit Time in the brain)” value in data set [4] (brain) was 8.61 min. In data set [1], this compound yielded a concentration at 0.25 min of 33.7 ± 5.51 nM. The compound further showed a concentration at 2 min in data set [1] of 13.1 ± 2.35 nM. The same compound returned a concentration at 5 min in data set [1] of 12.3 ± 1.37 nM. The compound further showed a concentration at 15 min in data set [1] of 3.73 ± 0.94 nM. In data set [1], this compound had a concentration at 20 min of 3.4 ± 0.22 nM. The Urine concentration in data set [2] (setting [6]) is 0.01 ± 0.00 nmol/g; in data set [2] (2 min after i.v. 668 nmol C3G) it was 1.48 ± 0.41 nmol/g; in data set [2] (5 min after i.v. 668 nmol C3G), 6.54 ± 0.33 nmol/g; in data set [2] (15 min after i.v. 668 nmol C3G) it was 5.67 ± 2.24 nmol/g; in data set [2] (20 min after i.v. 668 nmol C3G), 5.16 ± 1.11 nmol/g. For the same compound, in data set [5] (setting [8]), the “Amounts found in liver (range over sampling times)” value lay within 100.84 to 539.38 pmol/g. Moreover, the “Mean concentration in liver” value amounted to 539.38 ± 71.33 pmol/g in data set [5] (setting [7]); 317.61 ± 35.86 pmol/g in data set [5] (2 min after i.v. 668 nmol C3G); 364.74 ± 44.85 pmol/g in data set [5] (5 min after i.v. 668 nmol C3G); 216.10 ± 36.06 pmol/g in data set [5] (15 min after i.v. 668 nmol C3G); 100.84 ± 6.33 pmol/g in data set [5] (20 min after i.v. 668 nmol C3G). Moreover, in data set [5] (liver), the “MTTL (Mean Transit Time in the liver)” value is recorded as 3.93 min.
Turning to `COc1ccc(-c2[o+]c3cc(O)cc(O)c3cc2O[C@@H]2O[C@H](CO)[C@@H](O)[C@H](O)[C@H]2O)cc1O` [isoPN3G], the “Mean concentration in liver” value was 13.86 ± 4.32 pmol/g in data set [5] (setting [7]); 6.19 ± 2.09 pmol/g in data set [5] (2 min after i.v. 668 nmol C3G); 15.85 ± 1.82 pmol/g in data set [5] (5 min after i.v. 668 nmol C3G); 1.39 ± 1.14 pmol/g in data set [5] (15 min after i.v. 668 nmol C3G); 0.64 ± 0.25 pmol/g in data set [5] (20 min after i.v. 668 nmol C3G). The half-life in data set [5] (liver) turned out to be 3.18 min. The “Peak relative to PN3G” value in data set [5] (liver only) is “around 2.59 % of PN3G”. In data set [5] (liver), the AUC0-t was 145.57 pmol·min/g.

Source of the values: article PMC4786809, “Determination of cyanidin 3-glucoside in rat brain, liver and kidneys by UPLC/MS-MS and its application to a short-term pharmacokinetic study” (Scientific Reports, 2016).
